Test results reported in PubChem BioAssay AID1033 (Sanford-Burnham Center for Chemical Genomics, 2008).
The source made the active and inactive calls. No rule for the calls is given here.

target: Chaperone protein DnaK (Escherichia coli (strain K12)) (UniProt P0A6Y8); assay: binders of DnaK substrate-binding domain, biophysical, NMR, chaperone (AID 1033); conditions: Purified DnaK SBD, NMR ligand binding
Sequence (P0A6Y8 whole entry, looked up, the tested form may be a part): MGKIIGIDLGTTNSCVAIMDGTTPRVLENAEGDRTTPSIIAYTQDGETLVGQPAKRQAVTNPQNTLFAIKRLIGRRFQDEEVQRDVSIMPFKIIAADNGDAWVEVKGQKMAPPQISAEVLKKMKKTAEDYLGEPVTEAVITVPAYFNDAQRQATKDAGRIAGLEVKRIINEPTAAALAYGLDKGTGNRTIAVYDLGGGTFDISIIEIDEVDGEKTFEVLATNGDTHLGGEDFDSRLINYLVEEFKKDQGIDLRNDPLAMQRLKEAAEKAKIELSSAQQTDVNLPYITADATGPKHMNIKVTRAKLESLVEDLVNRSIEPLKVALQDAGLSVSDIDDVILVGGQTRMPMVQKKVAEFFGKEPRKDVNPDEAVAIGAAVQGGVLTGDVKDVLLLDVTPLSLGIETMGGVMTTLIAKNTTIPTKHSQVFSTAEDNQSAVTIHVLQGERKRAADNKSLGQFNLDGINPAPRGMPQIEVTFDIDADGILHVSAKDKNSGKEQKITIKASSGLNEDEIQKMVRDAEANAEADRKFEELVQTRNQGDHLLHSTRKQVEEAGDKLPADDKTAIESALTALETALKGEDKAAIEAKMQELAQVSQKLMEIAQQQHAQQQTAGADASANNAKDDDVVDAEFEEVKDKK

Structure (SMILES)	Kd
OCc1ccc2occc2c1	> 4 mM (inactive)
Cc1cc(NC(=O)c2ocnc2C)no1	> 4 mM (inactive)
Cc1cc(OC(=O)c2ccco2)c([N+](=O)[O-])c(=O)[nH]1	> 4 mM (inactive)
Cc1ccccc1-n1c(-c2cccnc2)n[nH]c1=S	> 4 mM (inactive)
O=C(Nc1cccc(Cl)c1)c1ccncc1	> 4 mM (inactive)
CC(=O)O[C@@H]1CC2C(C)(C)[C@H](O)C=C[C@]2(C)C2CC[C@@]3(C)[C@H](c4ccoc4)OC(=O)C4OC43[C@@]21C (stereo partly specified)	> 4 mM (inactive)
O=S1(=O)CCC(NCCO)C1 (stereo unspecified)	> 4 mM (inactive)
CNc1nc(C)nc(-n2nc(C)cc2C)n1	> 4 mM (inactive)
C=C1C2CC[C@@]3(C)[C@H](c4ccoc4)OC(=O)C[C@]13O[C@H]1CC(=O)C(C)(C)[C@H](C(O)C(=O)OC)[C@@]21C (stereo partly specified)	> 4 mM (inactive)
COCc1cc(Cl)nc(-c2csc(C)n2)n1	> 4 mM (inactive)
CC(=O)C1CC[C@H]2C3CC[C@H]4C[C@H](O)CC[C@]4(C)C3CC[C@]12C (stereo partly specified)	> 4 mM (inactive)
O=c1[nH]cnc2nc[nH]c12	> 4 mM (inactive)
Nc1c(Nc2ccccc2)c2ccccc2oc1=O	> 4 mM (inactive)
COc1cccc(=O)c2c(C)n(C)c(C)c12	> 4 mM (inactive)
Cc1nc2ccccc2c(=O)n1CCCO	> 4 mM (inactive)
CCC(C)C(=O)OC1[C@@H]2CC3=C4CC(=O)O[C@@H](c5ccoc5)[C@]4(C)CCC3C(C)(C2=O)[C@@H](CC(=O)OC)C1(C)C (stereo partly specified)	> 4 mM (inactive)
COC(=O)Nc1c(C)n(C)n(-c2ccccc2)c1=O	> 4 mM (inactive)
NC(=O)/C=C/C(=O)Nc1ccccc1	> 4 mM (inactive)
COc1cc2c(cc1OC)C1(O)C(=O)c3ccc(O)c(C(=O)O)c3OC1CO2 (stereo unspecified)	> 4 mM (inactive)
CC(C)c1c(O)c(-c2cc3c(c(C(C)C)c2O)CCC2C(C)(C)CCC[C@]32C)cc2c1CCC1C(C)(C)CCC[C@]21C (stereo partly specified)	> 4 mM (inactive)
COc1ccc(/C=C2/N=C(N)SC2=O)cc1	> 4 mM (inactive)
O=C1CSC(=O)N1c1cccc(O)c1	> 4 mM (inactive)
NC(=O)CN=Cc1c(O)[nH]c2ccccc12	> 4 mM (inactive)

Structure (SMILES)	Kd
O=C(CSc1ccccc1)N1CCC2(CC1)OCCO2	> 4 mM (inactive)
Nc1cc(=O)[nH]c(=S)n1-c1cccc(C(F)(F)F)c1	> 4 mM (inactive)
Cc1cc(=O)n2nc(-c3ccccc3)sc2n1	> 4 mM (inactive)
O=C(O)c1ccc2ncccc2c1	> 4 mM (inactive)
Nc1ncnc(NCCO)c1[N+](=O)[O-]	> 4 mM (inactive)
CC(=O)NC(O)C(=O)c1cccs1 (stereo unspecified)	> 4 mM (inactive)
CC(C)=CCC1=C(O)c2ccccc2C(=O)C1=O	> 4 mM (inactive)
CCC(=O)n1nc(-c2ccco2)nc1N	> 4 mM (inactive)
CSc1nc2nccc(N)n2n1	> 4 mM (inactive)
Cn1c(NCc2ccco2)nc2ccccc21	> 4 mM (inactive)
CC1CC2(NC(=O)NC2=O)C(C)CN1C (stereo unspecified)	> 4 mM (inactive)
O=C(c1ccc(Cl)s1)N1CCOCC1	> 4 mM (inactive)
COc1ccc(-c2coc3cc(O)ccc3c2=O)cc1	> 4 mM (inactive)
O=C(Nc1cnccn1)c1cccnc1	> 4 mM (inactive)
OCC1COc2ccccc2O1 (stereo unspecified)	> 4 mM (inactive)
Nc1cc(C(F)(F)F)ccc1N1CCOCC1	> 4 mM (inactive)
CC(=O)NN1C(=O)/C(=C\c2ccc(O)cc2)SC1=S	> 4 mM (inactive)
COc1cc(C/C=C/c2ccccc2)c(OC)cc1O	> 4 mM (inactive)
COC1(C)CCC2OC2(C)CCC2C1CC2(C)C (stereo unspecified)	> 4 mM (inactive)
Nc1nc2n(c1C(=O)c1ccccc1)CCC2	> 4 mM (inactive)
O=C(O)/C=C/C=C/c1ccccc1	> 4 mM (inactive)
Cc1ccc(-c2cc(C(=O)N3CCCC3)no2)cc1	> 4 mM (inactive)
COC(=O)c1ccc2nc[nH]c2c1	> 4 mM (inactive)
